Values of other authors in patent US11318093B2, “Dental topical anesthetic gel” (Pac-Dent, Inc., priority 2019, dated 2022).

Assays:
[1] = tested on: MCP-2 chemokine and other proinflammatory cytokines; conditions: Petrosino et al. 2018; in vitro ACD model; inhibition of MCP-2 chemokine and proinflammatory cytokine production
[2] = in vivo
[3] = tested on: methicillin-resistant Staphylococcus aureus strains (MRSA); conditions: European research; strains resistant to several classes of drugs
[4] = Evans 1991
[5] = tested on: cyclooxygenase (COX)

CCCCCc1cc(O)c2c(c1)OC(C)(CCC=C(C)C)C=C2 (stereo not drawn) [CBC, cannabichromene]
anti-inflammatory properties [1]: some anti-inflammatory benefits | pain and inflammation associated with collagen-induced osteoarthritis [2]: block pain and inflammation

C=C(C)[C@@H]1CCC(C)=C[C@H]1c1c(O)cc(CCCCC)cc1O [CBD, cannabidiol]
anti-inflammatory properties [1]: potent anti-inflammatory properties

C=C(C)[C@@H]1CCC(C)=C[C@H]1c1c(O)cc(CCC)cc1O [CBDV, cannabidivarin]
anti-inflammatory properties [1]: some anti-inflammatory benefits

CCCCCc1cc(O)c(C/C=C(\C)CCC=C(C)C)c(O)c1 [CBG, cannabigerol]
anti-inflammatory properties [1]: some anti-inflammatory benefits | antibacterial agent against MRSA [3]: effective antibacterial agent

CCCCCc1cc(O)c2c(c1)OC(C)(C)[C@@H]1CCC(C)=C[C@@H]21 [THC, tetrahydrocannabinol]
anti-inflammatory potency relative to aspirin [4]: twenty times that of aspirin | anti-inflammatory potency relative to hydrocortisone [4]: twice that of hydrocortisone | cyclooxygenase (COX) inhibition [5]: without any cyclooxygenase (COX) inhibition
